Patent publication US20030044399A1, “Method of treatment” (SmithKline Beecham Corporation, priority 1998, published 2003)
pKi: −log10 of the molar value. Read-outs that look alike come from different tables or passages of the source.

Legend:
Rhodazain = Rhodazain (Trypanosoma brucei rhodesiense, UniProt Q95PM0); assay: Cysteine protease inhibition, progress curve method, rhodazain; format: biochemical, Trypanosoma brucei rhodesiensi; conditions: 10 uM Cbz-Leu-Arg-AMC, 100 mM Na acetate pH 5.5, 5 mM cysteine; for pKi: read-out: Rhodazain Ki; for Ki: Rhodazain Ki (nM)
Cruzain = Cruzain (Trypanosoma cruzi, UniProt P25779); assay: Cysteine protease inhibition, progress curve method, cruzain; format: biochemical; conditions: 4 uM Ac-Lys-Glu-Lys-Leu-Arg-AMC, 100 mM Na acetate pH 5.5, 5 mM cysteine; read-out: Cruzain Ki
Outline: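 Kinetic constants from AMC-release progress curves over 20–30 min at ambient temperature in 100 mM Na acetate pH 5.5, 5 mM cysteine, 2% DMSO; enzyme added last to inhibitor plus substrate. Substrates: 10 uM Cbz-Phe-Arg-AMC (Leishmania, Schistosoma), 10 uM Cbz-Leu-Arg-AMC (falcipain), 4 uM Ac-Lys-Glu-Lys-Leu-Arg-AMC (cruzain). Ki,app from linear curves; time-dependent inhibition as kobs/[I].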

Chain of Rhodazain (Q95PM0 entry or part of it): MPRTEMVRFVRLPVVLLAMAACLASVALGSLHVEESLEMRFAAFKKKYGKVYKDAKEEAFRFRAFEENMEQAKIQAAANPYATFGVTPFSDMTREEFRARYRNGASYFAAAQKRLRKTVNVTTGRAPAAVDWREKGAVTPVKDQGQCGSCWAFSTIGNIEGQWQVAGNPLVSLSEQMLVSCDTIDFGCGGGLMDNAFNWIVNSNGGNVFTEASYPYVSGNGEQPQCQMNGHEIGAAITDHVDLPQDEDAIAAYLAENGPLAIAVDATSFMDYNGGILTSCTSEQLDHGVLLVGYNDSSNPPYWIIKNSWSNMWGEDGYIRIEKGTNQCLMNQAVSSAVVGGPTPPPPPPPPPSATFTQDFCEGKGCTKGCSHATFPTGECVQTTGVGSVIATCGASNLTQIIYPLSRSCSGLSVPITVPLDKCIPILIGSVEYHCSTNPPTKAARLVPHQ
Chain of Cruzain (P25779 123-337): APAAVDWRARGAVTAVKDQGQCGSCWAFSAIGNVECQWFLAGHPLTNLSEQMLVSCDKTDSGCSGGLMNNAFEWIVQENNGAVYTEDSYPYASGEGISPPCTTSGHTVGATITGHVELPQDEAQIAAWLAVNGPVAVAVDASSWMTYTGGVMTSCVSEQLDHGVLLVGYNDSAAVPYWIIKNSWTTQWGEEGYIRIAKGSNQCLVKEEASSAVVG

| Compound | pKi (Rhodazain) | pKi (Cruzain) | Ki (Rhodazain) [nM] |
| --- | --- | --- | --- |
| Cc1ccc2oc(C(=O)N[C@@H](CC(C)C)C(=O)NC3CCCN(S(=O)(=O)c4cccc[n+]4[O-])CC3=O)c(C)c2c1 (stereo partly drawn) [Example 201, 3,5-Dimethyl-benzofuran-2-carboxylic acid {(S)-3-methyl-1-[3-oxo-1-(1-oxy-pyridine-2-sulfonyl)-azepan-4-ylcarbamoyl]-butyl}-amide] | 8.12 | 8.00 | – |
| COc1cc2cc(C(=O)N[C@H](CC(C)C)C(=O)N[C@@H]3CCCN(S(=O)(=O)c4cccc[n+]4[O-])CC3=O)oc2cc1OC [Example 52, 5,6-Dimethoxy-benzofuran-2-carboxylic acid {(S)-3-methyl-1-[3-oxo-1-(1-oxy-pyridine-2-sulfonyl)-azepan-4-ylcarbamoyl]-butyl}amide] | – | 7.32 | 3.3 |
| Cc1ccc2oc(C(=O)NC(CC(C)C)C(=O)N[C@H]3CCN(S(=O)(=O)c4cccc[n+]4[O-])CCC3=O)c(C)c2c1 (single isomer, unassigned) [Example 206] | – | 8.18 | 4.9 |
| COc1cccc2oc(C(=O)N[C@@H](CC(C)C)C(=O)NC3CCCN(S(=O)(=O)c4cccc[n+]4[O-])CC3=O)c(C)c12 (stereo partly drawn) [Example 209, 4-Methoxy-3-methyl-benzofuran-2-carboxylic acid {(S)-3-methyl-1-[3-oxo-1-(1-oxy-pyridine-2-sulfonyl)-azepan-4-ylcarbamoyl]-butyl}-amide] | 8.39 | 8.05 | – |
| CC(C)C[C@@H](NC(=O)c1cc2cc(F)ccc2o1)C(=O)N[C@H]1CCCN(S(=O)(=O)c2cccc[n+]2[O-])CC1=O [Example 191, 5-Fluoro-benzofuran-2-carboxylic acid {(S)-3-methyl-1-[3-oxo-1-(1-ox-pyridine-2-sulfonyl)-azepan-4-ylcarbamoyl]-butyl}-amide] | – | 7.92 | 8.3 |
| CC(C)C[C@@H](NC(=O)c1ccc(Br)o1)C(=O)N[C@@H]1CCCN(S(=O)(=O)c2ccccn2)CC1=O (single isomer, unassigned) [Example 68] | – | 8.48 | 0.93 |
| CC(C)C[C@H](NC(=O)c1cc2ccccc2n1C)C(=O)N[C@H]1CCCN(S(=O)(=O)c2nccs2)CC1=O [Example 128, 1-Methyl-1H-indole-2-carboxylic acid{(S)-3-methyl-1-[3-oxo-1-(thiazole-2-sulfonyl)-azepan-4-ylcarbamoyl]-butyl}amide] | – | 7.77 | 8.2 |
| CC(C)C[C@@H](NC(=O)c1ccc(Br)o1)C(=O)N[C@@H]1CCCN(S(=O)(=O)c2ccccn2)CC1=O (stereo in doubt) [Example 34, 5-Bromo-furan-2-carboxylic acid {(S)-3-methyl-1-[3-oxo-1-(pyridine-2-sulfonyl)-azepan-4-ylcarbamoyl]-butyl}amide] | – | 7.92 | 2.6 |
| CC(C)C[C@@H](NC(=O)c1cc2sccc2s1)C(=O)N[C@@H]1CCCN(S(=O)(=O)c2ccccn2)CC1=O (single isomer, unassigned) [Example 98] | – | 8.28 | 3.9 |
| CC(C)C[C@@H](NC(=O)c1ccc2ncccc2c1)C(=O)N[C@@H]1CCCN(S(=O)(=O)c2ccccn2)CC1=O (stereo in doubt) [Example 25, Quinoline-6-carboxylic acid {(S)-3-methyl-1-[3-oxo-1-(pyridine-2-sulfonyl)-azepan-4-ylcarbamoyl]-butyl}amide] | – | 8.08 | 8 |
| CC(C)C[C@@H](NC(=O)c1cc2ccccc2o1)C(=O)N[C@@H]1CCCN(S(=O)(=O)c2ccccn2)CC1=O [Example 16] | – | 8.21 | 5.5 |
| CC(C)C[C@@H](NC(=O)c1cc2cc(F)c(F)cc2o1)C(=O)N[C@@H]1CCCN(S(=O)(=O)c2ccccn2)CC1=O (stereo in doubt) [Example 149, 5,6-Difluoro-benzofuran-2-carboxylic acid {(S)-3-methyl-1-[1-(pyridine-2-sulfonyl)-3-oxo-azepan-4-ylcarbamoyl]-butyl}amide] | – | 8.04 | 6.3 |
| CC(C)C[C@@H](NC(=O)c1cc2cc(F)ccc2o1)C(=O)N[C@H]1CCCN(S(=O)(=O)c2cccc[n+]2[O-])CC1=O (single isomer, unassigned) [Example 194] | – | 8.06 | 6.7 |
| Cc1c(C(=O)NC(CC(C)C)C(=O)N[C@H]2CCCN(S(=O)(=O)c3cccc[n+]3[O-])CC2=O)oc2cc(F)ccc12 (single isomer, unassigned) [Example 196] | – | 7.96 | 6.8 |
| CC(C)CC(NC(=O)c1ccc(F)cc1)C(=O)N[C@@H]1CCCN(S(=O)(=O)c2cccc[n+]2[O-])CC1=O (stereo partly drawn) [Example 77, 4-Fluoro-{(S)-3-methyl-1-[3-oxo-1-(1-oxy-pyridine-2-sulfonyl)-azepan-4-carbamoyl]-butyl}-benzamide] | – | 7.82 | 7.9 |
| Cc1cccnc1S(=O)(=O)N1CCC[C@@H](NC(=O)[C@@H](CC(C)C)NC(=O)c2cc3sccc3s2)C(=O)C1 [Example 160, Thieno [3.2-b]thiophene-2-carboxylic acid {(S)-3-methyl-1-[1-(3-methyl-pyridine-2-sulfonyl)-3-oxo-azepan-4-ylcarbamoyl]-butyl}amide] | – | 8.13 | 6.7 |
| Cc1c(C(=O)N[C@@H](CC(C)C)C(=O)N[C@@H]2CCCN(S(=O)(=O)c3cccs3)CC2=O)oc2ccccc12 [Example 145, 3-Methyl-benzofuran-2-carboxylic acid-{(S)-3-methyl-1-[3-oxo-1-(thiophene-2-sulfonyl)-azepan-4-ylcarbamoyl]-butyl}-amide] | – | 8.21 | 9.4 |
| 5,6-Dimethoxy-benzofuran-2-carboxylic acid {(S)-3-methyl-1-[3-oxo-1-(1-oxy-pyridine-2-sulfonyl)-azepan-4-ylcarbamoyl]-butyl}amide [Example 48] | 8.38 | 7.72 | – |
| CC(C)C[C@@H](NC(=O)c1nccc2ccccc12)C(=O)N[C@@H]1CCCN(S(=O)(=O)c2ccccn2)CC1=O (single isomer, unassigned) [Example 154] | – | 8.36 | 4.4 |
| CC(C)C[C@@H](NC(=O)c1cc2cc(F)c(F)cc2o1)C(=O)N[C@@H]1CCCN(S(=O)(=O)c2ccccn2)CC1=O (single isomer, unassigned) [Example 150] | – | 8.27 | 3.7 |
| CC(C)C[C@H](NC(=O)c1cc2ccccc2o1)C(=O)N[C@H]1CCCN(S(=O)(=O)c2cccs2)CC1=O [Example 142, Benzofuran-2-carboxylic acid-{(S)-3-methyl-1-[3-oxo-1-(thiophene-2-sulfonyl)-azepan-4-ylcarbamoyl]-butyl}-amide] | – | 8.62 | 5.2 |
| CC(C)C[C@@H](NC(=O)c1ccc2c(c1)OCO2)C(=O)N[C@@H]1CCCN(S(=O)(=O)c2cccc[n+]2[O-])CC1=O [Example 55, Benzo[1,3]dioxole-5-carboxylic acid {(S)-3-methyl-1-[3-oxo-1-(1-oxy-pyridine-2-sulfonyl)-azepan-4-ylcarbamoyl]-butyl}amide] | – | 7.92 | 7.3 |
| CC(C)C[C@H](NC(=O)c1cc2cc(O)ccc2o1)C(=O)N[C@H]1CCCN(S(=O)(=O)c2cn(C)cn2)CC1=O [Example 44, 5-Hydroxy-benzofuran-2-carboxylic acid {(S)-3-methyl-1-[1-(1-methyl-1H-imidazole-4-sulfonyl)-3-oxo-azepan-4-ylcarbamoyl]-butyl}amide] | – | 7.96 | 7.2 |
| CC(C)C[C@@H](NC(=O)c1ccc(Br)o1)C(=O)N[C@@H]1CCCN(S(=O)(=O)c2cccc[n+]2[O-])CC1=O [Example 47] | – | 7.89 | 2.7 |
| COc1ccc2oc(C(=O)N[C@H](CC(C)C)C(=O)N[C@@H]3CCCN(S(=O)(=O)c4cccc[n+]4[O-])CC3=O)cc2c1 (single isomer, unassigned) [Example 63] | – | 8.01 | 5.9 |
| COc1ccc2oc(C(=O)N[C@@H](CC(C)C)C(=O)N[C@H]3CCCN(S(=O)(=O)c4ccccc4F)CC3=O)cc2c1 [Example 92, 5-Methoxy-benzofuran-2-carboxylic acid-{(S)-1-[1-(2-fluoro-benzenesulfonyl)-3-oxo-azepan-4-ylcarbamoyl]-3-methyl-butyl}-amide] | – | 7.31 | 6.3 |
| CC(C)C[C@H](NC(=O)c1cc2ccccc2o1)C(=O)N[C@H]1CCCN(S(=O)(=O)c2nccs2)CC1=O [Example 130, Benzofuran-2-carboxylic acid {(S)-3-methyl-1-[3-oxo-1-(thiazole-2-sulfonyl)-azepan-4-ylcarbamoyl]-butyl}amide] | – | 8.60 | 2.6 |
| Cc1c(C(=O)N[C@H](CC(C)C)C(=O)N[C@@H]2CCCN(S(=O)(=O)c3ccccn3)CC2=O)oc2ccccc12 (single isomer, unassigned) [Example 97] | – | 8.40 | 2.7 |
| CCc1c(C(=O)NC(CC(C)C)C(=O)N[C@H]2CCN(S(=O)(=O)c3cccc[n+]3[O-])CCC2=O)oc2ccccc12 (single isomer, unassigned) [Example 207] | – | 8.00 | 5.4 |
| CC(C)C[C@@H](NC(=O)c1cnc2ccccc2n1)C(=O)N[C@@H]1CCCN(S(=O)(=O)c2ccccn2)CC1=O (stereo in doubt) [Example 30, Quinoxaline-2-carboxylic acid {(S)-3-methyl-1-[3-oxo-1-(pyridine-2-sulfonyl)-azepan-4-ylcarbamoyl]-butyl}amide] | – | 7.77 | 10 |
